Results from PMC10819243 (Pharmaceutics, 2024).
Read-outs that look alike come from different tables or passages of the source.

Key:
MCF-7 = experiment: MTT assay, MCF-7; assay type: cell-based; conditions: for IC50: Homo sapiens, MCF7, MTT assay, MCF-7 breast carcinoma, (±s) standard deviation; for Selectivity Index MCF-7: IC50 for normal cell line (HDF)/IC50 for MCF-7
A-549 = experiment: MTT assay, A-549; assay type: cell-based; conditions: for IC50: Homo sapiens, A549, MTT assay, A-549 lung carcinoma, (±s) standard deviation; for Selectivity Index A-549: IC50 for normal cell line (HDF)/IC50 for A-549
HeLa = experiment: MTT assay, HeLa; assay type: cell-based; conditions: for IC50: Homo sapiens, MTT assay, HeLa cervix carcinoma, (±s) standard deviation; for Selectivity Index HeLa: IC50 for normal cell line (HDF)/IC50 for HeLa
[1] = system: HDF (normal fibroblast cell line); experiment: MTT assay, HDF; assay type: cell-based, human; conditions: MTT assay, HDF normal fibroblast cell line, (±s) standard deviation
KB = experiment: MTT assay, KB; assay type: cell-based; conditions: for IC50: Homo sapiens, MTT assay, KB nasopharynx carcinoma, (±s) standard deviation; for Selectivity Index KB: IC50 for normal cell line (HDF)/IC50 for KB
[2] = system: HeLa, KB, MCF-7, A-549 and HDF cell lines; experiment: MTT assay, statements over several tested cell lines; assay type: cell-based
[3] = summary over the tested cell lines, read-out: IC50 values for the tested cell lines (range or summary)
[4] = one approximate value or range for the four cancer cell lines, apart from HDF, read-out: IC50 for HeLa, KB, MCF-7, and A-549 cancer cell lines
[5] = ratio of IC50 values vs oleanolic acid (1)

SMILES | IC50 (MCF-7) | Selectivity Index MCF-7 (MCF-7) | IC50 (A-549) | Selectivity Index A-549 (A-549) | IC50 (HeLa) | Selectivity Index HeLa (HeLa) | IC50 ([1]; Homo sapiens, Fibroblast) | IC50 (KB) | Selectivity Index KB (KB) | IC50 [2, 3] | times less active than mother OA (1) ([2]; over the tested cell lines) | IC50 [2, 4] | IC50 [1] | IC50 values for the tested cell lines (range or summary) ([2]; summary over the tested cell lines) | fold as active as OA (1), MCF-7 (MCF-7; [5]) | fold as active as OA (1), KB (KB; [5])
CC1(C)CC[C@]2(C(=O)N3CCOCC3)CC[C@]3(C)C(=CCC4[C@@]5(C)CC/C(=N\OC(=O)c6ccc([N+](=O)[O-])cc6)C(C)(C)C5CC[C@]43C)C2C1 (stereo partly drawn) [Compound 7f, 3-(4′-Nitro)benzoxyiminoolean-12-en-28-oic acid morpholide] | 57.2 µM | 1.49 | 62.9 µM | 1.35 | 60 µM | 1.42 | 85.1 µM | 61.5 µM | 1.38 | 40 to 66 µM |  |  |  |  |  | 
COC(=O)C12CCC(C)(C)CC1C1=CCC3C4(C)CCC(=NO)C(C)(C)C4CCC3(C)C1(C)CC2 (stereo not drawn) [Compound 2, methyl oleanonate oxime] |  | 1.38 | 13 µM | 1.62 |  | 1.60 | 21.1 µM |  | 1.70 |  |  |  |  |  |  | 
CC(=O)O/N=C1\CC[C@@]2(C)C(CC[C@]3(C)C2CC=C2C4CC(C)(C)CC[C@]4(C(=O)N4CCOCC4)CC[C@]23C)C1(C)C (stereo partly drawn) [Compound 7a, 3-Acetoxyiminoolean-12-en-28-oic acid morpholide] | 81 µM | 1.43 | 84.9 µM | 1.37 | 82.2 µM | 1.41 | 116 µM | 81.5 µM | 1.42 | ≥ 80 µM | about 8 fold |  |  |  |  | 
COC(=O)[C@]12CCC(C)(C)CC1C1=CC(=O)C3[C@@]4(C)CC/C(=N\OC(=O)c5ccc([N+](=O)[O-])cc5)C(C)(C)C4CC[C@@]3(C)[C@]1(C)CC2 (stereo partly drawn) [Compound 6f, 3-(4′-Nitro)benzoxyimino-11-oxoolean-12-en-28-oic acid methyl ester] | 26 µM | 1.43 | 28.1 µM | 1.32 | 28.3 µM | 1.31 | 37.2 µM | 26.3 µM | 1.41 |  |  |  |  |  |  | 
COC(=O)[C@]12CCC(C)(C)CC1C1=CCC3[C@@]4(C)CC/C(=N\OC(=O)c5cccc([N+](=O)[O-])c5)C(C)(C)C4CC[C@@]3(C)[C@]1(C)CC2 (stereo partly drawn) [Compound 5e] | 21.8 µM | 1.74 | 21.1 µM | 1.80 | 20.1 µM | 1.88 | 38 µM | 23.9 µM | 1.59 | 20.1 to 38 µM |  |  |  |  |  | 
COC(=O)[C@]12CCC(C)(C)CC1C1=CC(=O)C3[C@@]4(C)CC/C(=N\OC(=O)CCl)C(C)(C)C4CC[C@@]3(C)[C@]1(C)CC2 (stereo partly drawn) [Compound 6b, 3-Chloroacetoxyimino-11-oxoolean12-en-28-oic acid methyl ester] | 64.1 µM | 1.37 | 61.8 µM | 1.42 | 61 µM | 1.44 | 88 µM | 61 µM | 1.44 |  |  | 61 to 64 µM |  |  |  | 
COC(=O)[C@]12CCC(C)(C)CC1C1=CC(=O)C3[C@@]4(C)CC/C(=N\OC(=O)c5cccc([N+](=O)[O-])c5)C(C)(C)C4CC[C@@]3(C)[C@]1(C)CC2 (stereo partly drawn) [Compound 6e, 3-(3′-Nitro)benzoxyimino-11-oxoolean-12-en-28-oic acid methyl ester] | 75 µM | 1.29 | 74 µM | 1.31 | 71.2 µM | 1.36 | ~97 µM | 70 µM | 1.39 |  |  | 70 to 74 µM | 97 µM |  |  | 
CC1(C)CC[C@]2(C(=O)O)CC[C@]3(C)C(=CC[C@@H]4[C@@]5(C)CC[C@H](O)C(C)(C)[C@@H]5CC[C@]43C)[C@@H]2C1 [Compound 1, oleanolic acid, reference compound] |  |  |  |  |  |  | 17.9 µM |  |  |  |  |  |  |  |  | 
CC1(C)CC[C@]2(C(=O)N3CCOCC3)CC[C@]3(C)C(=CCC4[C@@]5(C)CC/C(=N\OC(=O)c6ccccc6)C(C)(C)C5CC[C@]43C)C2C1 (stereo partly drawn) [Compound 7d, 3-Benzoxyiminoolean-12-en-28-oic acid morpholide] | 41.7 µM | 1.58 | 46.8 µM | 1.41 | 45.3 µM | 1.46 | 66.2 µM | 45.9 µM | 1.44 | 40 to 66 µM |  |  |  |  |  | 
COC(=O)[C@]12CCC(C)(C)CC1C1=CCC3[C@@]4(C)CC/C(=N\OC(=O)c5ccccc5)C(C)(C)C4CC[C@@]3(C)[C@]1(C)CC2 (stereo partly drawn) [Compound 5d, 3-Benzoxyiminoolean-12-en-28-oic acid methyl ester] | 83.3 µM | 1.36 | 73.9 µM | 1.53 | 84.9 µM | 1.33 | 113 µM | 83.2 µM | 1.36 | 73.9 to 113 µM |  |  |  |  |  | 
COC(=O)[C@]12CCC(C)(C)CC1C1=CCC3[C@@]4(C)CC/C(=N\OC(=O)c5ccc([N+](=O)[O-])cc5)C(C)(C)C4CC[C@@]3(C)[C@]1(C)CC2 (stereo partly drawn) [Compound 5f, 3-(4′-Nitro)benzoxyiminoolean-12-en-28-oic acid methyl ester] | 61.4 µM | 2.15 | 69.9 µM | 1.89 | 62 µM | 2.13 | 132 µM | 60.7 µM | 2.18 | 60.7 to 132 µM |  |  |  |  |  | 
COC(=O)[C@]12CCC(C)(C)CC1C1=CC(=O)C3[C@@]4(C)CC/C(=N\OC(C)=O)C(C)(C)C4CC[C@@]3(C)[C@]1(C)CC2 (stereo partly drawn) [Compound 6a, 3-Acetoxyimino-11-oxoolean-12-en-28-oic acid methyl ester] | 28 µM | 1.75 | 28.2 µM | 1.74 | 27.4 µM | 1.79 | ~49 µM | 27.9 µM | 1.76 |  |  | ~28 µM | 49.1 µM |  |  | 
CC1(C)CC[C@]2(C(=O)N3CCOCC3)CC[C@]3(C)C(=CCC4[C@@]5(C)CC/C(=N\OC(=O)c6cccc([N+](=O)[O-])c6)C(C)(C)C5CC[C@]43C)C2C1 (stereo partly drawn) [Compound 7e, 3-(3′-Nitro)benzoxyiminoolean-12-en-28-oic acid morpholide] | 10.2 µM | 2.75 | 13.8 µM | 2.03 | 12.1 µM | 2.32 | 28 µM | 13.9 µM | 2.02 |  |  |  |  | comparable to those of OA (1) |  | 
CC1(C)CC[C@]2(C(=O)N3CCOCC3)CC[C@]3(C)C(=CCC4[C@@]5(C)CC/C(=N\OC(=O)CCl)C(C)(C)C5CC[C@]43C)C2C1 (stereo partly drawn) [Compound 7b, 3-Chloroacetoxyiminoolean12-en-28-oic acid morpholide] | 15.6 µM | 2.50 | 19.3 µM | 2.02 | 19.2 µM | 2.03 | 39.1 µM | 19.8 µM | 1.97 | 15 to 40 µM |  |  |  |  |  | 
COC(=O)[C@]12CCC(C)(C)CC1C1=CCC3[C@@]4(C)CC/C(=N\OC(C)=O)C(C)(C)C4CC[C@@]3(C)[C@]1(C)CC2 (stereo partly drawn) [Compound 5a, 3-Acetoxyiminoolean-12-en-28-oic acid methyl ester] | 10.5 µM | 2.76 | 10.6 µM | 2.74 | 11.1 µM | 2.62 | 29 µM | 11.4 µM | 2.55 |  |  |  |  |  | about 1.3 fold | about 1.3 fold
CCC(=O)O/N=C1\CC[C@@]2(C)C(CC[C@]3(C)C2C(=O)C=C2C4CC(C)(C)CC[C@]4(C(=O)OC)CC[C@]23C)C1(C)C (stereo partly drawn) [Compound 6c, 3-Propionoxyimino-11-oxoolean-12-en-28-oic acid methyl ester] | 23 µM | 2.13 | 24.2 µM | 2.03 | 24 µM | 2.04 | ~50 µM | 24.8 µM | 1.97 |  |  | ~24 µM | 49 µM |  |  | 
COC(=O)[C@]12CCC(C)(C)CC1C1=CC(=O)C3[C@@]4(C)CC/C(=N\OC(=O)c5ccccc5)C(C)(C)C4CC[C@@]3(C)[C@]1(C)CC2 (stereo partly drawn) [Compound 6d, 3-Benzoxyimino-11-oxoolean-12-en-28-oic acid methyl ester] | 27.5 µM | 1.53 | 27.8 µM | 1.51 | 28.4 µM | 1.48 | ~42 µM | 27.2 µM | 1.54 |  |  | ~27 µM | 42 µM |  |  | 
